Results: ChEMBL document CHEMBL1149803, “Synthesis and anticonvulsant activity of some novel 3-aryl amino/amino-4-aryl-5-imino-Delta2-1,2,4-thiadiazoline” (Eur J Med Chem, 2008)
The source made the active and inactive calls. The calls are words filed in the database; no cut-off is given here.

Tests used:
Mus musculus [1] = test: Anticonvulsant activity in ip dosed CF1 albino mouse assessed as prevention of maximal electroshock-induced seizures after 0.5 hrs; format: functional
Mus musculus [2] = test: Anticonvulsant activity in ip dosed CF1 albino mouse assessed as prevention of maximal electroshock-induced seizures after 4 hrs; format: functional
Mus musculus [3] = test: Anticonvulsant activity in ip dosed CF1 albino mouse assessed as prevention of subcutaneous pentylenetetrazole-induced seizure after 0.5 hrs; format: functional
Mus musculus [4] = test: Anticonvulsant activity in CF1 albino mouse assessed as prevention of subcutaneous pentylenetetrazole-induced seizure at 300 mg/kg, ip after 4 hrs; format: functional, organism-based; parameters: dose 300 mg/kg
Mus musculus [5] = test: Neurotoxicity in ip dosed CF1 albino mouse after 0.5 hrs by rotarod test; format: toxicity, organism-based; details: in vivo
Rattus norvegicus = test: Sedative-hypnotic effect in Sprague-Dawley albino rat assessed as increase in sleep time at 100 mg/kg, ip by phenobarbitone-induced hypnosis test; format: functional; details: route intraperitoneal
Mus musculus [6] = test: Anticonvulsant activity in CF1 albino mouse assessed as prevention of subcutaneous pentylenetetrazole-induced seizure at 300 mg/kg, ip after 0.5 hrs; format: functional, organism-based; parameters: dose 300 mg/kg
Mus musculus [7] = test: Anticonvulsant activity in CF1 albino mouse assessed as prevention of maximal electroshock-induced seizures at 300 mg/kg, ip after 4 hrs; format: functional, organism-based; parameters: dose 300 mg/kg
Mus musculus [8] = test: Neurotoxicity in ip dosed CF1 albino mouse after 4 hrs by rotarod test; format: toxicity, organism-based; details: in vivo
Mus musculus [9] = test: Anticonvulsant activity in CF1 albino mouse assessed as prevention of maximal electroshock-induced seizures at 300 mg/kg, ip after 0.5 hrs; format: functional, organism-based; parameters: dose 300 mg/kg

SMILES	Activity (Mus musculus [1]) [mg/kg]	Activity (Mus musculus [2]) [mg/kg]	Activity (Mus musculus [3]) [mg/kg]	Activity (Mus musculus [4])	Activity (Mus musculus [5]) [mg/kg]	Activity (Rattus norvegicus) [%]	Activity (Mus musculus [6])	Activity (Mus musculus [7])	Activity (Mus musculus [8]) [mg/kg]	Activity (Mus musculus [9])
CCOc1ccc(Nc2nsc(=N)n2-c2ccc(OCC)cc2)cc1	30	300	300	inactive	300	55.6				
N=c1snc(Nc2ccc(F)cc2)n1-c1ccc(F)cc1	100	300		inactive	300	5.1	inactive			
N=c1snc(N)n1-c1cccnc1	300			inactive	100		inactive	inactive		
N=c1snc(Nc2cccc3ccccc23)n1-c1cccc2ccccc12	30	300		inactive	300	16.4	inactive			
N=c1snc(Nc2ccncc2)n1-c1ccncc1	300			inactive	100		inactive	inactive		
N=c1snc(N)n1-c1cccc2ccccc12	30			inactive	300	8.8	inactive	inactive	300	
O=C1NC(=O)C(c2ccccc2)(c2ccccc2)N1 [PHENYTOIN]	30	100		inactive	100		inactive		100	
N=c1snc(N)n1-c1ccc(F)cc1	100	300		inactive	100	20.2	inactive			
N=c1snc(N)n1-c1ccncc1	300			inactive	100		inactive	inactive		
N=c1snc(Nc2cccnc2)n1-c1cccnc1	300			inactive	100		inactive	inactive		
CCOc1ccc(-n2c(N)nsc2=N)cc1	100			inactive	100	46.8	inactive	inactive		
N=c1snc(N)n1-c1ncccn1				inactive	100		inactive	inactive		inactive
N=c1snc(N)n1-c1ccc(Cl)cc1	300			inactive	100		inactive	inactive		
N=c1snc(N)n1-c1ccc(Br)cc1	300			inactive			inactive	inactive		
N=c1snc(N)n1-c1ccccn1	300			inactive	100		inactive	inactive		
NC(=O)N1c2ccccc2C=Cc2ccccc21 [CARBAMAZEPINE]	30		100	inactive	100			inactive	300	
COc1ccc(-n2c(N)nsc2=N)cc1	300			inactive			inactive	inactive		
N=c1snc(Nc2ncccn2)n1-c1ncccn1	100			inactive	100	11.4	inactive	inactive		
N=c1snc(Nc2ccccn2)n1-c1ccccn1	300			inactive	100		inactive	inactive	300	
